Source: US8314110B2, “Compounds for treating mental disorders, and preparation and uses thereof” (priority 2007, dated 2012)

Assays:
[1] = Absolute bioavailability, beagle tests of the compound [formula (II)] and its prodrugs; format: in vivo; conditions: iv, dosage equimolar to the prodrug, compound [formula (II)] in blood
Protocol: Measurement of the Absolute Bioavailability—Beagle Tests of the Compound [Formula (II)] and its Prodrugs, the Compounds 1, 2, 3, 5, 6, 7 and 8
Twenty one beagles weighing about 10 kg were divided into 7 groups, and intragastrically administered the compounds 1, 2, 3, 5, 6, 7 and 8 at a dosage of 9.4 μmol/beagle, respectively. Blood samples were taken at the predetermined time points, and the concentrations of the active metabolite (the compound [formula (II)]) and prodrugs in blood were measured. In the meantime, three beagles weighing about 10 kg were intravenously administered with the compound [formula (II)] at a dosage equimolar to the prodrug, as the control group, and the concentrations of the compound [formula (II)] in blood were measured.
The prodrugs were immediately metabolized almost completely to form the active metabolite in beagle body, the compound [formula (II)] upon being administrated parenterally, and the concentrations of the original compounds were very low (see: FIG. 1C).

[2] = oral administration; cited from earlier work
[3] = Dissolution of oral sustained-release capsules; format: physicochemical
Protocol: Granules were obtained by using conventional fluidized bed.
After the coating was dried, the coated granules were filled into hard gelatin capsules, each capsule contain 6 mg of the active ingredient (expressed in the compound [formula (II)]), and the coating degree was 6%. The capsules were subjected to dissolution tests according the method specified in the Pharmacopoeia of the People's Republic of China.

[4] = Dissolution of the oral conventional tablets; format: physicochemical
Protocol: Tablets were obtained by direct tabletting, and each tablet contained 6 mg of active ingredient (expressed in the compound [formula (II)]).

[5] = Metabolism of the compounds to the active component (compound [formula (II)]) in liver cells; conditions: human liver cells S9, 1 mM NADPH, 37° C., 2 hours; metabolized to the compound [formula (II)]
Excerpt: After the precipitated proteins were removed by centrifugation, the obtained supernatant solution was adjusted to pH of 3 with concentrated potassium phosphate solution, and centrifuged again. The obtained supernatant was directly injected into HPLC for analysis.

SMILES	Dissolution percentage of the active ingredient ([3]; dissolution time 2 hours) [%]	Dissolution percentage of the active ingredient ([3]; dissolution time 4 hours) [%]	Dissolution percentage of the active ingredient ([3]; dissolution time 8 hours) [%]	Dissolution percentage of the active ingredient ([3]; dissolution time 12 hours) [%]	Dissolution percentage of the active ingredient ([3]; dissolution time 24 hours) [%]	Dissolution percentage of the active ingredient ([4]; dissolution time 2 hours) [%]	Dissolution percentage of the active ingredient ([4]; dissolution time 4 hours) [%]	Dissolution percentage of the active ingredient ([4]; dissolution time 8 hours) [%]	Metabolic rate (%) [5] [%]	further results
Cc1nc2n(c(=O)c1CCN1CCC(c3noc4cc(F)ccc34)CC1)CCCC2O (stereo not drawn) [9-hydroxy risperidone, 3-{2-[4-(6-fluoro-benzo[d]isoxazol-3-yl)piperidin-1-yl]-ethyl}-9-hydroxy-2-methyl-6,7,8,9-tetrahydro-pyrido[1,2-α]pyrimidin-4-one]										Cmax ([1]; beagle, dog, 9.4 μmol/beagle): 360 ng/mL; half-life ([1]; beagle, dog, 9.4 μmol/beagle): 2.51 h; AUC [1]: 2422 nghr/ml; absolute bioavailability [2]: 28%
Cc1nc2n(c(=O)c1CCN1CCC(c3noc4cc(F)ccc34)CC1)CCCC2OC(=O)c1ccccc1 (stereo not drawn) [Compound 1, 3-{2-[4-(6-fluoro-1,2-benzoisoxazol-3-yl)-1-piperidinyl]-ethyl}-2-methyl-4-oxo-6,7,8,9-tetrahydro-pyrido[1,2-α]pyrimidin-9-yl benzoate]	8.9	26	60	76	94	35	67	92	89	
Cc1ccc(C(=O)OC2CCCn3c2nc(C)c(CCN2CCC(c4noc5cc(F)ccc45)CC2)c3=O)cc1 (stereo not drawn) [Compound 2, 3-{2-[4-(6-fluoro-1,2-benzoisoxazol-3-yl)-1-piperidinyl]ethyl}-2-methyl-4-oxo-6,7,8,9-tetrahydro-pyrido[1,2-α]pyrimidin-9-yl 4-methylbenzoate]									78	
CCOC(=O)OC1CCCn2c1nc(C)c(CCN1CCC(c3noc4cc(F)ccc34)CC1)c2=O.Cl (stereo not drawn) [Compound 5, 3-{2-[4-(6-fluoro-1,2-benzoisoxazol-3-yl)-1-piperidinyl]ethyl}-2-methyl-4-oxo-6,7,8,9-tetrahydro-pyrido[1,2-α]pyrimidin-9-yl ethyl carbonate hydrochloride]									95	
Cc1nc2n(c(=O)c1CCN1CCC(c3noc4cc(F)ccc34)CC1)CCCC2OC(=O)OCC(C)C.Cl.Cl (stereo not drawn) [Compound 6, 3-{2-[4-(6-fluoro-1,2-benzoisoxazol-3-yl)-1-piperidinyl]ethyl}-2-methyl-4-oxo-6,7,8,9-tetrahydro-pyrido[1,2-α]pyrimidin-9-yl isobutyl carbonate dihydrochloride]	8.8	19	42	68	89	43	79	98	92	
CCCCCOC(=O)OC1CCCn2c1nc(C)c(CCN1CCC(c3noc4cc(F)ccc34)CC1)c2=O.Cl.Cl (stereo not drawn) [Compound 7, 3-{2-[4-(6-fluoro-1,2-benzoisoxazol-3-yl)-1-piperidinyl]ethyl}-2-methyl-4-oxo-6,7,8,9-tetrahydro-pyrido[1,2-α]pyrimidin-9-yl n-pentyl carbonate dihydrochloride]	5.3	22	41	59	82	45	76	93	93	
Cc1nc2n(c(=O)c1CCN1CCC(c3noc4cc(F)ccc34)CC1)CCCC2OC(=O)Oc1ccccc1.Cl (stereo not drawn) [Compound 8, 3-{2-[4-(6-fluoro-1,2-benzoisoxazol-3-yl)-1-piperidinyl]ethyl}-2-methyl-4-oxo-6,7,8,9-tetrahydro-pyrido[1,2-α]pyrimidin-9-yl phenyl carbonate hydrochloride]									94	
Cc1nc2n(c(=O)c1CCN1CCC(c3noc4cc(F)ccc34)CC1)CCCC2OC(=O)Oc1ccc([N+](=O)[O-])cc1.Cl (stereo not drawn) [Compound 9, 3-{2-[4-(6-fluoro-1,2-benzoisoxazol-3-yl)-1-piperidinyl]ethyl}-2-methyl-4-oxo-6,7,8,9-tetrahydro-pyrido[1,2-α]pyrimidin-9-yl p-nitrophenyl carbonate hydrochloride]									89	
Cc1nc2n(c(=O)c1CCN1CCC(c3noc4cc(F)ccc34)CC1)CCCC2 [Risperidone]										absolute bioavailability [2]: at least 70%
